Assay results taken from patent US20210164015A1, “ANTIMICROBIAL SUSCEPTIBILITY TESTING USING MICRODROPLETS” (Becton, Dickinson and Company, priority 2018, published 2021).

System: E. coli
Assay: microdroplet antibiotic susceptibility testing (AST) using a fluorescent viability indicator
Assay type: cell-based
Details: for fluorescence intensity of microdroplets (fluorescent viability indicator): E. coli encapsulated in microdroplets
Excerpt: FIGS. 3A-3D depict results of an embodiment of microdroplet antibiotic susceptibility testing using a fluorescent viability indicator. FIG. 3A depicts change in fluorescent intensity in microdroplets at 1-hour, 2-hour, and 3-hour time points in samples without antibiotic (condition A) and samples with antibiotic at two times MIC (condition B). FIG. 3B depicts micrographs of microdroplets under the conditions of FIG. 3A.
Some embodiments provided herein relate to a first mode for determining microbial viability. A first mode for determining microbial viability is schematically depicted in FIG. 1. As described herein, a first mode for determining microbial viability includes providing a sample having microbes therein, dividing the sample into a number of portions, preparing microdroplets encapsulating microbes from the sample, either before or after the portions are formed (FIG. 1 depicts forming portions first), contacting each portion to a different concentration of an antimicrobial of interest either before or after preparing the microdroplets (FIG. 1 depicts adding an antibiotic prior to forming microdroplets), and measuring viability of the microbes by measuring a signal of microbial viability. Measuring a signal of microbial viability may be performed by obtaining a measure of microbial viability from a discrete subset of microdroplets, or a plurality of discrete subsets of microdroplets, from a population of microdroplets. The results for the measurements from discrete subsets of microdroplets at a first time point can then be combined to generate a result for the portion of the sample from which the microdroplet(s) were taken at this first time point. This process can be repeated at additional time points to determine microbial viability in that portion over time, thereby determining the susceptibility of the microbe to a given concentration of antimicrobial. Typically, it is not necessary to measure the exact same population of microdroplets at the first and subsequent time points, as long as the population of microdroplets measured at each time point are representative of the portion of the sample from which they are taken. The results from the various portions exposed to different concentrations of antimicrobial can then be used to determine the susceptibility of the microbe to the antimicrobial. […] Conversely, an increase in the measure of microbial viability over time indicates growth of microbes in the concentration of antimicrobial present in the portion of the sample from which the measurements were made. A minimum inhibitory concentration can be determined utilizing the results of antimicrobial susceptibility and/or microbe growth from the several portions of the sample exposed to different concentrations of antimicrobial. […]

For `CC1(C)S[C@@H]2[C@H](NC(=O)[C@H](N)c3ccccc3)C(=O)N2[C@H]1C(=O)O` [ampicillin], the “fluorescence intensity of microdroplets (fluorescent viability indicator)” value (antibiotic at 2×MIC (Condition B), 1 hour incubation (t1)) was “remained low”, the “fluorescence intensity of microdroplets (fluorescent viability indicator)” value (antibiotic at 2×MIC (Condition B), 2 hours and 3 hours incubation (t2, t3)) was “remained low” and the “E. coli growth in microdroplets” value (antibiotic at 2×MIC (Condition B), 2 hours and 3 hours, inferred from fluorescence intensity) was “no E. coli growth”. The “presence of E. coli in micrographs of microdroplets (FIG. 3D)” value (microdroplets exposed to antibiotic at 2×MIC (Condition B)) was “no E. coli is present”.
